# Reference: US12643903B2, “Bifunctional compounds for degradation of EGFR and related methods of use” (BeiGene, Ltd., priority 2020, dated 2026)
# Legend:
# Format in all cases: cell-based
# Details in all cases: 16 h treatment, EGFR degradation by HTRF
# EGFR [1] = target: T1, EGFR (Homo sapiens, UniProt P00533, L858R/T790M); assay: Cell Degradation 1: EGFR degradation in H1975 cells, HTRF assay
# T1 construct: endogenous in cells; host or cells: H1975
# Summary of the method: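 EGFR levels were read by HTRF (337 nm excitation, 665 and 620 nm emission) in lysates of H1975 cells exposed to compound for 16 h, with antibodies incubated overnight at room temperature. Fitting percent inhibition versus concentration to a Hill equation gave DC50.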
# EGFR [2] = target: T2, EGFR (Homo sapiens, UniProt P00533, DEL746-750); assay: Cell Degradation 2: EGFR degradation in HCC827 cells, HTRF assay
# T2 construct: endogenous in cells; host or cells: HCC827
# T2 sequence (P00533 with tags, fused parts or gaps DEL746-750): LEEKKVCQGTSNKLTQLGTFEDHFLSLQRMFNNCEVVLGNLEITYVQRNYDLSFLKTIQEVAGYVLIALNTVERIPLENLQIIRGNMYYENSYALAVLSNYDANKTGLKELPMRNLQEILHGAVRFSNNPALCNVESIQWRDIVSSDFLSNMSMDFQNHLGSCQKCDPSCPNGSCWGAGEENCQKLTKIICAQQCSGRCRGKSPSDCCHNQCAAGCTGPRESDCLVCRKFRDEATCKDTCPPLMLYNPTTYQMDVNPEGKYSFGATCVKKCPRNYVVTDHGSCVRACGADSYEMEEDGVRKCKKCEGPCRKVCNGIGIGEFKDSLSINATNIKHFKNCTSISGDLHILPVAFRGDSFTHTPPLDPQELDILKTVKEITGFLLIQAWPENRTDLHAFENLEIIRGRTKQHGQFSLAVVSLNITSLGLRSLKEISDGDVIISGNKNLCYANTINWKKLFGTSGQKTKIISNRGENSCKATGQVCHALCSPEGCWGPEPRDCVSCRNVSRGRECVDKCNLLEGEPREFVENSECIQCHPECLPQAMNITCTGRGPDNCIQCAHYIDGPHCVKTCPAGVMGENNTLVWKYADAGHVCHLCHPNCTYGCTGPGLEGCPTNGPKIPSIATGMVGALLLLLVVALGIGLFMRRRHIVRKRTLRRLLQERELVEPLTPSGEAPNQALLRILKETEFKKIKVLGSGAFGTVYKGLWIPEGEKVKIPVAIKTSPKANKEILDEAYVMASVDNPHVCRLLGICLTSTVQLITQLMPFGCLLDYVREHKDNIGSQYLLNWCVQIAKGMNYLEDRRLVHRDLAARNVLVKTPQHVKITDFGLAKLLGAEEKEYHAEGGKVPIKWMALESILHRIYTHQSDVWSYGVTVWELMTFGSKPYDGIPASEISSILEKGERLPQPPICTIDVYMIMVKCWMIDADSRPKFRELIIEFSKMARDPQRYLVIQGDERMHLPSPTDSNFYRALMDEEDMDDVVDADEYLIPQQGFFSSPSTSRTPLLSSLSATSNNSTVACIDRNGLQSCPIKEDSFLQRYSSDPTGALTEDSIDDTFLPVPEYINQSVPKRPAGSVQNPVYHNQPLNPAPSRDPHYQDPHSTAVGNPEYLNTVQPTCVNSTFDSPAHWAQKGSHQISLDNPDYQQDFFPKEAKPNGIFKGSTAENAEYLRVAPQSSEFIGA
# T2 sequence (Q96SW2 whole entry partner): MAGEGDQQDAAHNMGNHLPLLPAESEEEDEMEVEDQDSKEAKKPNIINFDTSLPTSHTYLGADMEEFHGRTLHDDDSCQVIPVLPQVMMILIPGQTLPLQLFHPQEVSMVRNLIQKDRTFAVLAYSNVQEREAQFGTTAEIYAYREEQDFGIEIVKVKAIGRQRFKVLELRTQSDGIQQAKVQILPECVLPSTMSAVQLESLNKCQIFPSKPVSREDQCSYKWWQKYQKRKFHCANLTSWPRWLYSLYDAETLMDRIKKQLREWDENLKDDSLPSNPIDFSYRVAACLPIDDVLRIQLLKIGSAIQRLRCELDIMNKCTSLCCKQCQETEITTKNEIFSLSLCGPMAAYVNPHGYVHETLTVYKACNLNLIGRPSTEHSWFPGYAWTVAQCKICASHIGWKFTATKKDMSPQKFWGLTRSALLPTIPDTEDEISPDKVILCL
# Summary of the method: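 DC50 values derive from four-parameter fits of percent inhibition versus concentration. The HTRF read-out (665/620 nm ratio, 337 nm excitation) followed 16 h compound exposure of HCC827 cells, 1 h lysis and overnight room-temperature incubation with the HTRF antibodies.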
# EGFR DTC = assay: Cell Degradation 3: EGFR degradation in BaF3 cells (DTC), HTRF assay
# Method: Cell Degradation 3 Cell Treatment
# BaF3 cells are treated with compounds diluted in 0.2% DMSO, dilution is done according to the following protocol: (1) make 500× stock solution in DMSO from 5 mM by 4-fold dilution, total 8 doses were included; (2) make 2× solution in cell culture medium by transferring 0.5 μl 500× stock solution into 125 μl medium; (3) 30 μl of 2× solution is added to cells and incubate for 16 h.
# After 16 h treatment, add 20 μl 4×lysis buffer to each well; seal the plate and incubate 1 hour at room temperature on a plate shaker; Once the cells are lysed, 16 μL of cell lysate are transferred to a PE 384-well HTRF detection plate (for triple mutant cells, the lysate were diluted by the qual volume 1×lysis buffer before transfer); 4 μL of pre-mixed HTRF antibodies are added to each well; Cover the plate with a plate sealer, spin 1000 rpm for 1 min, Incubate overnight at room temperature; Read on BMG PheraStar with HTRF protocol (337 nm-665 nm-620 nm).
# The IC50 (DC50) value of a compound can be obtained by fitting the following equation Y=Bottom+(TOP−Bottom)/(1+((IC50/X)^hillslope))
# Wherein, X and Y are known values, and IC50, Hillslope, Top and Bottom are the parameters obtained by fitting with software. Y is the inhibition percentage (calculated from the equation), X is the concentration of the compound; IC50 is the concentration of the compound when the 50% inhibition is reached. The smaller the IC50 value is, the stronger the inhibitory ability of the compound is. Vice versa, the higher the IC50 value is, the weaker the ability the inhibitory ability of the compound is; Hillslope represents the slope of the fitted curve, generally around 1*; Bottom represents the minimum value of the curve obtained by data fitting, which is generally 0%±20%; Top represents the maximum value of the curve obtained by data fitting, which is generally 100%±20%. The experimental data were fitted by calculating and analyzing with Dotmatics data analysis software.
# EGFR LTC = target: T3, EGFR LTC (Homo sapiens, UniProt P00533, C797S/L858R/T790M); assay: Cell Degradation 3: EGFR degradation in BaF3 cells (LTC), HTRF assay
# T3 construct: expressed in transfected cells; host or cells: BaF3
# T3 sequence (P00533 25-1210 T790M/C797S/L858R): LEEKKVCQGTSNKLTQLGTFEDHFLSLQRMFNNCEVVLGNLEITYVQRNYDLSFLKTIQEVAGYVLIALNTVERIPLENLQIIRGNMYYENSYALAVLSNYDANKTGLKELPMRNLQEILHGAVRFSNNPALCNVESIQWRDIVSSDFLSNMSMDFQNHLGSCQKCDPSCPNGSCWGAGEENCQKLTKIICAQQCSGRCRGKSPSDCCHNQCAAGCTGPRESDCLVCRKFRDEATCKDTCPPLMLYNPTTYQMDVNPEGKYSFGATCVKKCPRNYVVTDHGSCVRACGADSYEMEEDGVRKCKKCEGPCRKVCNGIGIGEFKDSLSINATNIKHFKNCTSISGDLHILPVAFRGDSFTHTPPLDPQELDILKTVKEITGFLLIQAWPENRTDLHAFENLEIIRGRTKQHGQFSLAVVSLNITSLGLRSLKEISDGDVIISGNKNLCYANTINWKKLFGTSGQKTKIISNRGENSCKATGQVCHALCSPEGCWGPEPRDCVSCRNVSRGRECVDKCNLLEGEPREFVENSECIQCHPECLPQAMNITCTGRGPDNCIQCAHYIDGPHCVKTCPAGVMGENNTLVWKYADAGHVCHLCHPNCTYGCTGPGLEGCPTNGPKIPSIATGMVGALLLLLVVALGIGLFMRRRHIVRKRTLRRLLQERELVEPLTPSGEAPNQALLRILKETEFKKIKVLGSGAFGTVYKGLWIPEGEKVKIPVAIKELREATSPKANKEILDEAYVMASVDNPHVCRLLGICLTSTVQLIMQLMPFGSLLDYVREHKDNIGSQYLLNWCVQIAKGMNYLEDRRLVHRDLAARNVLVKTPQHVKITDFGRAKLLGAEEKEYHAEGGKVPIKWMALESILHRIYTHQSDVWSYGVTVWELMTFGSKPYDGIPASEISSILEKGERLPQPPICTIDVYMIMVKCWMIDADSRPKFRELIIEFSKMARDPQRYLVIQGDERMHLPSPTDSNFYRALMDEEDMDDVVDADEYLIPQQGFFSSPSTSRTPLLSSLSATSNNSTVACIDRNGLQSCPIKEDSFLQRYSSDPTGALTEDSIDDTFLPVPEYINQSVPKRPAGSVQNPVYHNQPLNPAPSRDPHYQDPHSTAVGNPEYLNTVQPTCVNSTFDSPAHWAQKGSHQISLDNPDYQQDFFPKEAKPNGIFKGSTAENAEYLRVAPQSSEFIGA
# Summary of the method: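 BaF3 cells expressing EGFR (LTC triple mutant C797S/L858R/T790M or DTC) exposed to compounds for 16 h, 8 doses from 4-fold dilution, 0.2% DMSO. Residual EGFR quantified by HTRF in lysates (triple mutant lysate diluted 1:1); DC50 from four-parameter logistic fit.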
# T1 sequence (P00533 25-1210 T790M/L858R): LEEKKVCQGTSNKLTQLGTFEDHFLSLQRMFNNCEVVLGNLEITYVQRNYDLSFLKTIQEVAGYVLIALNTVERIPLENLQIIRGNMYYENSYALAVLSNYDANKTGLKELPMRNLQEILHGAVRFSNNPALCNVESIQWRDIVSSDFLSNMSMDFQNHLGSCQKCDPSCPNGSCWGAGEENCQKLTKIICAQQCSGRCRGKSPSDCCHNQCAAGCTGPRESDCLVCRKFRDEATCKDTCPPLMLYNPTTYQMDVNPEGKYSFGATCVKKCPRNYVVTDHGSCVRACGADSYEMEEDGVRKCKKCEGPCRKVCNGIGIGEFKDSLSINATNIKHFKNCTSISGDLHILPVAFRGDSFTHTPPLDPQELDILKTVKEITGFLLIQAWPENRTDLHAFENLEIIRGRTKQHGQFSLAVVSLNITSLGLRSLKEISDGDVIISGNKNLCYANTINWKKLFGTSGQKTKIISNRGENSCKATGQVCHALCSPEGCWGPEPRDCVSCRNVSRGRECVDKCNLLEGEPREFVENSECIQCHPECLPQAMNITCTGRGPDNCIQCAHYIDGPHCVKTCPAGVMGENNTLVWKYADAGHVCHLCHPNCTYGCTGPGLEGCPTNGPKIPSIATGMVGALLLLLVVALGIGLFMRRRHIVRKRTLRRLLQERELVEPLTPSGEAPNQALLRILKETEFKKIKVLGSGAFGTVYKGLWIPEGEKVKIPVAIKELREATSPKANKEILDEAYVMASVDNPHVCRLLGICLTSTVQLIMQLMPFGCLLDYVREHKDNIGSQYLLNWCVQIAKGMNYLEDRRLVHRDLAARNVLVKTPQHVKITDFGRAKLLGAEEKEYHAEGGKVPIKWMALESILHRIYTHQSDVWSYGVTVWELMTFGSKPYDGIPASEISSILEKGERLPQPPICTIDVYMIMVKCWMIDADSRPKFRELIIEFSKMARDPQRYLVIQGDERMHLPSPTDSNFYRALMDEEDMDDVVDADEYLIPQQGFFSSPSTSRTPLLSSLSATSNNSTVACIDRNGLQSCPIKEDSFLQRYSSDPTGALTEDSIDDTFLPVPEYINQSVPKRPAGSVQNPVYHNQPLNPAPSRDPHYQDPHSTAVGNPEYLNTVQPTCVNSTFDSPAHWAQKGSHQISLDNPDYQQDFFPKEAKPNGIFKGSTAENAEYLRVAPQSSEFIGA
DC50 (EGFR [1]),DC50 (EGFR [2]),DC50 (EGFR DTC),DC50 (EGFR LTC),Structure (SMILES)
3.8 nM,3.5 nM,16.7 nM,43.1 nM,"COc1cc(N2CCC(N3CCN(CCC4CCN(c5ccc6c(c5)C(=O)N(C5CCC(=O)NC5=O)C6=O)CC4)CC3)CC2)ccc1Nc1ncc(Cl)c(Nc2cccc3c2N(S(C)(=O)=O)CC3)n1 (stereo not shown) [Example 37, 5-(4-(2-(4-(1-(4-((5-chloro-4-((1-(methylsulfonyl)indolin-7-yl)amino)pyrimidin-2-yl)amino)-3-methoxyphenyl)piperidin-4-yl)piperazin-1-yl)ethyl)piperidin-1-yl)-2-(2,6-dioxopiperidin-3-yl)isoindoline-1,3-dione]"
3 nM,2 nM,11 nM,19 nM,"COc1cc(N2CCC(N3CCN(C[C@H]4C[C@H](c5ccc6c(c5)CN(C5CCC(=O)NC5=O)C6=O)C4)CC3)CC2)c(C)cc1Nc1ncc(Br)c(Nc2cccc3c2N(S(C)(=O)=O)CC3)n1 (stereo partly shown) [Example 159, 3-(5-((1r,3r)-3-((4-(1-(4-((5-bromo-4-((1-(methylsulfonyl)indolin-7-yl)amino)pyrimidin-2-yl)amino)-5-methoxy-2-methylphenyl)piperidin-4-yl)piperazin-1-yl)methyl)cyclobutyl)-1-oxoisoindolin-2-yl)piperidine-2,6-dione]"
15.5 nM,8.6 nM,26.3 nM,42.6 nM,"COc1cc(N2CCC(N3CCN(CCC4CCN(c5ccc(C6CCC(=O)NC6=O)c(F)c5)CC4)CC3)CC2)ccc1Nc1ncc(Cl)c(Nc2cccc3c2N(S(C)(=O)=O)CC3)n1 (stereo not shown) [Example 36, 3-(4-(4-(2-(4-(1-(4-((5-chloro-4-((1-(methylsulfonyl)indolin-7-yl)amino)pyrimidin-2-yl)amino)-3-methoxyphenyl)piperidin-4-yl)piperazin-1-yl)ethyl)piperidin-1-yl)-2-fluorophenyl)piperidine-2,6-dione]"
3.2 nM,2.8 nM,3.5 nM,15.1 nM,"CS(=O)(=O)N1CCc2cccc(Nc3nc(Nc4ccc(N5CCC(N6CCN(C(=O)[C@H]7CCN(c8ccc9c(c8)C(=O)N(C8CCC(=O)NC8=O)C9=O)C7)CC6)CC5)c(F)c4)ncc3Cl)c21 (stereo partly drawn) [Example 82, 5-((S)-3-(4-(1-(4-((5-chloro-4-((1-(methylsulfonyl)indolin-7-yl)amino)pyrimidin-2-yl)amino)-2-fluorophenyl)piperidin-4-yl)piperazine-1-carbonyl)pyrrolidin-1-yl)-2-(2,6-dioxopiperidin-3-yl)isoindoline-1,3-dione]"
1.8 nM,2.7 nM,13 nM,16.2 nM,"COc1cc(N2CCC(N3CCN(CC4CN(c5ccc6c(c5)C(=O)N(C5CCC(=O)NC5=O)C6=O)C4)CC3)CC2)ccc1Nc1ncc(Cl)c(Nc2cccc3c2N(S(C)(=O)=O)CC3)n1 (stereo not shown) [Example 86, 5-(3-((4-(1-(4-((5-chloro-4-((1-(methylsulfonyl)indolin-7-yl)amino)pyrimidin-2-yl)amino)-3-methoxyphenyl)piperidin-4-yl)piperazin-1-yl)methyl)azetidin-1-yl)-2-(2,6-dioxopiperidin-3-yl)isoindoline-1,3-dione]"
13.8 nM,3.5 nM,11.7 nM,15.7 nM,"CS(=O)(=O)N1CCc2cccc(Nc3nc(Nc4ccc(N5CCC(N6CCN(CCC7CCN(c8cc(F)c(C9CCC(=O)NC9=O)c(F)c8)CC7)CC6)CC5)c(F)c4)nc4[nH]ccc34)c21 (stereo not shown) [Example 67, 3-(2,6-difluoro-4-(4-(2-(4-(1-(2-fluoro-4-((4-((1-(methylsulfonyl)indolin-7-yl)amino)-7H-pyrrolo[2,3-d]pyrimidin-2-yl)amino)phenyl)piperidin-4-yl)piperazin-1-yl)ethyl)piperidin-1-yl)phenyl)piperidine-2,6-dione]"
10 nM,9.2 nM,35.8 nM,68.3 nM,"CS(=O)(=O)N1CCc2cccc(Nc3nc(Nc4ccc(N5CCC(N6CCN(C(=O)CCN7CCN(c8ccc9c(c8)C(=O)N(C8CCC(=O)NC8=O)C9=O)CC7)CC6)CC5)c(F)c4)nc4[nH]ccc34)c21 (stereo not shown) [Example 15, 2-(2,6-dioxopiperidin-3-yl)-5-(4-(3-(4-(1-(2-fluoro-4-((4-((1-(methylsulfonyl)indolin-7-yl)amino)-7H-pyrrolo[2,3-d]pyrimidin-2-yl)amino)phenyl)piperidin-4-yl)piperazin-1-yl)-3-oxopropyl)piperazin-1-yl)isoindoline-1,3-dione]"
9.8 nM,9.7 nM,176 nM,230 nM,"COc1cc(N2CCN(C3CCN(CCc4ccc(C5CCC(=O)NC5=O)cc4)CC3)CC2)ccc1Nc1ncc(Cl)c(Nc2cccc3c2N(S(C)(=O)=O)CC3)n1 (stereo not shown) [Example 38, 3-(4-(2-(4-(4-(4-((5-chloro-4-((1-(methylsulfonyl)indolin-7-yl)amino)pyrimidin-2-yl)amino)-3-methoxyphenyl)piperazin-1-yl)piperidin-1-yl)ethyl)phenyl)piperidine-2,6-dione]"
4.2 nM,2.7 nM,15.6 nM,43.3 nM,"COc1cc(N2CCC(N3CCN(C(=O)[C@@H]4CCN(c5ccc6c(c5)C(=O)N(C5CCC(=O)NC5=O)C6=O)C4)CC3)CC2)ccc1Nc1ncc(Cl)c(Nc2cccc3c2N(S(C)(=O)=O)CC3)n1 (stereo partly drawn) [Example 88, 5-((R)-3-(4-(1-(4-((5-chloro-4-((1-(methylsulfonyl)indolin-7-yl)amino)pyrimidin-2-yl)amino)-3-methoxyphenyl)piperidin-4-yl)piperazine-1-carbonyl)pyrrolidin-1-yl)-2-(2,6-dioxopiperidin-3-yl)isoindoline-1,3-dione]"
7 nM,2 nM,14 nM,25 nM,"COc1cc(N2CCC(N3CCN(C[C@H]4CCN(c5ccc6c(c5)CN(C5CCC(=O)NC5=O)C6=O)C4)CC3)CC2)c(C)cc1Nc1ncc(Br)c(Nc2cccc3c2N(S(C)(=O)=O)CC3)n1 (stereo partly drawn) [Example 168, 3-(5-((R)-3-((4-(1-(4-((5-bromo-4-((1-(methylsulfonyl)indolin-7-yl)amino)pyrimidin-2-yl)amino)-5-methoxy-2-methylphenyl)piperidin-4-yl)piperazin-1-yl)methyl)pyrrolidin-1-yl)-1-oxoisoindolin-2-yl)piperidine-2,6-dione]"
3 nM,2.9 nM,1.8 nM,2.8 nM,"COc1cc(N2CCC(N3CCN(CC4CN(c5ccc6c(c5)CN(C5CCC(=O)NC5=O)C6=O)C4)CC3)CC2)ccc1Nc1ncc(Cl)c(Nc2cccc3c2N(S(C)(=O)=O)CC3)n1 (stereo not shown) [Example 85, 3-(5-(3-((4-(1-(4-((5-chloro-4-((1-(methylsulfonyl)indolin-7-yl)amino)pyrimidin-2-yl)amino)-3-methoxyphenyl)piperidin-4-yl)piperazin-1-yl)methyl)azetidin-1-yl)-1-oxoisoindolin-2-yl)piperidine-2,6-dione]"
,2 nM,4 nM,9 nM,"COc1cc(N2CCC(N3CCN(C(=O)C4CN(c5ccc6c(c5)CN(C5CCC(=O)NC5=O)C6=O)C4)CC3)CC2)c(C)cc1Nc1ncc(Br)c(Nc2cccc3c2N(S(C)(=O)=O)CC3)n1 (stereo not shown) [Example 172, 3-(5-(3-(4-(1-(4-((5-bromo-4-((1-(methylsulfonyl)indolin-7-yl)amino)pyrimidin-2-yl)amino)-5-methoxy-2-methylphenyl)piperidin-4-yl)piperazine-1-carbonyl)azetidin-1-yl)-1-oxoisoindolin-2-yl)piperidine-2,6-dione]"
,,4 nM,9 nM,"COc1cc(N2CCC(N3CCN(C(=O)C4CN(c5ccc6c(c5)C(=O)N(C5CCC(=O)NC5=O)C6)C4)CC3)CC2)c(C)cc1Nc1ncc(Br)c(Nc2cccc3c2N(S(C)(=O)=O)CC3)n1 (stereo not shown) [Example 171, 3-(6-(3-(4-(1-(4-((5-bromo-4-((1-(methylsulfonyl)indolin-7-yl)amino)pyrimidin-2-yl)amino)-5-methoxy-2-methylphenyl)piperidin-4-yl)piperazine-1-carbonyl)azetidin-1-yl)-1-oxoisoindolin-2-yl)piperidine-2,6-dione]"
